5 compounds from patent US20260092083A1, “VANCOMYCIN DERIVATIVES WITH SIDEROPHORE MODIFICATION AS NOVEL REPURPOSED ANTIBIOTICS TO COMBAT GRAM-NEGATIVE BACTERIAL INFECTION” (priority 2023, published 2026) can be followed below.

Common to all, as to assay type: cell-based
For assay [1], the system named is P. aeruginosa (multi-pump-gene mutant) PAM1626. Kind of assay: Broth microdilution MIC, P. aeruginosa efflux-deficient. Conditions: Pseudomonas aeruginosa, read-out: MIC (μg/mL) Gram-negative PSA Efflux. The procedure:
(§1) The test compounds including vancomycin hydrochloride were supplied as a 6.4 mg/mL solution in 100% dimethyl sulfoxide (DMSO) aliquoted into individual wells of a 96-well plate (50 μL per well). […] Standardized inocula were added to the MIC test plates, which were incubated for the prescribed times at 35° C. The N. gonorrhoeae strain was incubated in an atmosphere containing 5% CO2.
(§2) The final optical density of each well at 600 nm was measured using a Tecan Spark plate reader. The compound concentration versus OD600 data were then curve fit using custom software. An MIC value was defined as the lowest compound concentration that led to an OD600 value≤0.15 for the E. coli, K. pneumoniae, P. aeruginosa, A. baumannii, or S. aureus strains. For the N. gonorrhoeae strain, an OD600 value≤0.19 was used as a cutoff to define an MIC value; this higher cut-off value was required because the N. gonorrhoeae MIC plates were covered with plastic seals that increased the background OD600 value.
(§3) JMI Laboratories followed current CLSI quality assurance practices when performing the susceptibility tests. MIC values were validated by concurrently testing the CLSI-recommended ATCC QC reference strains S. aureus ATCC 29213 and K. pneumoniae ATCC 700603. The inoculum density during susceptibility testing was monitored by bacterial colony counts. Where applicable, QC ranges for tested reference strains were those ranges approved or published by CLSI for testing in CAMHB. […] Importantly, the CLSI reference method for testing N. gonorrhoeae is the agar dilution MIC method, which was not used here. Thus, CLSI MIC QC ranges for N. gonorrhoeae could not be applied to the antimicrobials studied here.
(§4) Abbreviations: EC, E. coli (wild-type) BW25113; EC efflux^−, E. coli (tolC) JW5503-1; KPN, K. pneumoniae ATCC 700603; PSA, P. aeruginosa PAO1; PSA efflux^−, P. aeruginosa (multi-pump-gene mutant) PAM1626; ACB, A. baumannii JMI #1186154; GC, N. gonorrhoeae WHO-Z; SA, S. aureus ATCC 29213. Broth microdilution MIC values were measured in iron-depleted CAMHB for all strains except for GC, which was tested in fastidious broth.

In a further assay the test system is N. gonorrhoeae WHO-Z. The assay can be described thus: Broth microdilution MIC, N. gonorrhoeae. Conditions: Neisseria gonorrhoeae, read-out: MIC (μg/mL) Gram-negative GC. The procedure:
as §1, §2, §3, §4

The test system of the next assay is P. aeruginosa PAO1. Kind of assay: Broth microdilution MIC, P. aeruginosa. Conditions: Pseudomonas aeruginosa, iron-depleted CAMHB, OD600 ≤0.15, read-out: MIC (μg/mL) Gram-negative PSA. The procedure:
as §1, §2, §3, §4
Background: In broth dilution the organism is exposed to a series of concentrations in liquid medium.

The subject of assay [2] is K. pneumoniae ATCC 700603. The assay can be described thus: Broth microdilution MIC, K. pneumoniae. Conditions: Klebsiella pneumoniae, ATCC700603, read-out: MIC (μg/mL) Gram-negative KPN. On the procedure: as §1, §2, §3, §4
For assay [3], the system named is E. coli (wild-type) BW25113. Kind of assay: Broth microdilution MIC, E. coli wild-type. The settings on record: Escherichia coli, iron-depleted CAMHB, OD600 ≤0.15, read-out: MIC (μg/mL) Gram-negative EC. On the procedure:
as §1, §2, §3, §4

Assay [4] deals with A. baumannii JMI #1186154. Kind of assay: Broth microdilution MIC, A. baumannii. Conditions: Acinetobacter baumannii, iron-depleted CAMHB, OD600 ≤0.15, read-out: MIC (μg/mL) Gram-negative ACB. On the procedure:
as §1, §2, §3, §4

Another assay relates to E. coli (tolC) JW5503-1. Kind of assay: Broth microdilution MIC, E. coli efflux-deficient (tolC). The settings on record: Escherichia coli, read-out: MIC (μg/mL) Gram-negative EC Efflux. The procedure:
as §1, §2, §3, §4

The test system of the next assay is S. aureus ATCC 29213. Kind of assay: Broth microdilution MIC, S. aureus. Conditions: Staphylococcus aureus, ATCC29213, iron-depleted CAMHB, OD600 ≤0.15, read-out: MIC (μg/mL) Gram positive SA. On the procedure:
as §1, §2, §3, §4

Each structure is given as a SMILES string. Converted amounts (≈) assume the structure as drawn.

For the compound `CNC(CC(C)C)C(=O)NC1C(=O)NC(CC(N)=O)C(=O)NC2C(=O)NC3C(=O)NC(C(=O)N[C@H](C(=O)NCCCN4C(=O)c5cc(O)c(O)cc5C4=O)c4cc(O)cc(O)c4-c4cc3ccc4O)C(O)c3ccc(c(Cl)c3)Oc3cc2cc(c3OC2OC(CO)C(O)C(O)C2OC2CC(C)(N)C(O)C(C)O2)Oc2ccc(cc2Cl)C1O` (stereo partly shown) [Compound 1], the MIC was over 64 µg/mL in assay [1]; over 64 µg/mL in the assay with N. gonorrhoeae WHO-Z; over 64 µg/mL with P. aeruginosa PAO1; over 64 µg/mL in assay [2]; 64 µg/mL (≈ 38.4 µM) in assay [3]; 32 µg/mL (≈ 19.2 µM) in assay [4]. Besides, the MIC in the assay on E. coli (tolC) JW5503-1 was determined as 64 µg/mL (≈ 38.4 µM); in the assay with S. aureus ATCC 29213, 8 µg/mL (≈ 4.8 µM).
For `CNC(CC(C)C)C(=O)NC1C(=O)NC(CC(N)=O)C(=O)NC2C(=O)NC3C(=O)NC(C(=O)N[C@H](C(=O)O)c4cc(O)c(CNCCNC(=O)c5cccc(O)c5O)c(O)c4-c4cc3ccc4O)C(O)c3ccc(c(Cl)c3)Oc3cc2cc(c3OC2OC(CO)C(O)C(O)C2OC2CC(C)(N)C(O)C(C)O2)Oc2ccc(cc2Cl)C1O` (stereo partly shown) [Compound 24], the MIC in assay [1] is over 64 µg/mL; in the assay on N. gonorrhoeae WHO-Z it was over 64 µg/mL; in the assay on P. aeruginosa PAO1, over 64 µg/mL; in assay [2] it was over 64 µg/mL; in assay [3] it was over 64 µg/mL; in assay [4], 8 µg/mL (≈ 4.83 µM). Further, the MIC in the assay with E. coli (tolC) JW5503-1 was over 64 µg/mL; in the assay on S. aureus ATCC 29213, 32 µg/mL (≈ 19.3 µM).
`CC(C)C[C@H](C(=O)N[C@H]1C(=O)N[C@@H](CC(N)=O)C(=O)N[C@H]2C(=O)N[C@H]3C(=O)N[C@H](C(=O)N[C@H](C(=O)O)c4cc(O)cc(O)c4-c4cc3ccc4O)[C@H](O)c3ccc(c(Cl)c3)Oc3cc2cc(c3O[C@@H]2O[C@H](CO)C(O)C(O)[C@H]2O[C@H]2CC(C)(N)[C@H](O)[C@H](C)O2)Oc2ccc(cc2Cl)[C@H]1O)N(C)CCNC(=O)c1ccc(O)c(O)c1Cl` (stereo partly shown) [Compound 30]: the MIC was over 64 µg/mL in assay [1]; over 64 µg/mL in the assay with N. gonorrhoeae WHO-Z; over 64 µg/mL in the assay on P. aeruginosa PAO1; over 64 µg/mL in assay [2]; 64 µg/mL (≈ 38.5 µM) in assay [3]; 32 µg/mL (≈ 19.2 µM) in assay [4]. The MIC in the assay with E. coli (tolC) JW5503-1 was over 64 µg/mL; in the assay with S. aureus ATCC 29213, 4 µg/mL (≈ 2.41 µM).
`CN[C@H](CC(C)C)C(=O)N[C@H]1C(=O)N[C@@H](CC(N)=O)C(=O)N[C@H]2C(=O)N[C@H]3C(=O)N[C@H](C(=O)N[C@H](C(=O)NCCOCCOCCNS(=O)(=O)c4ccc(O)c(O)c4)c4cc(O)cc(O)c4-c4cc3ccc4O)[C@H](O)c3ccc(c(Cl)c3)Oc3cc2cc(c3O[C@@H]2O[C@H](CO)C(O)C(O)[C@H]2O[C@H]2CC(C)(N)[C@H](O)[C@H](C)O2)Oc2ccc(cc2Cl)[C@H]1O` (stereo in doubt) [Compound 18]: the MIC in assay [1] is over 64 µg/mL; with N. gonorrhoeae WHO-Z it was over 64 µg/mL; in the assay with P. aeruginosa PAO1 it was over 64 µg/mL; in assay [2], over 64 µg/mL; in assay [3], 64 µg/mL (≈ 36.5 µM); in assay [4], 1 µg/mL (≈ 0.571 µM). Further, the MIC was over 64 µg/mL in the assay on E. coli (tolC) JW5503-1 and 4 µg/mL (≈ 2.28 µM) with S. aureus ATCC 29213.
As to `CNC(CC(C)C)C(=O)NC1C(=O)NC(CC(N)=O)C(=O)NC2C(=O)NC3C(=O)NC(C(=O)N[C@H](C(=O)O)c4cc(O)c(CNCc5cn(CCCNC(=O)c6ccc(O)c(O)c6Cl)nn5)c(O)c4-c4cc3ccc4O)C(O)c3ccc(c(Cl)c3)Oc3cc2cc(c3OC2OC(CO)C(O)C(O)C2OC2CC(C)(N)C(O)C(C)O2)Oc2ccc(cc2Cl)C1O` (stereo partly shown) [Compound 27], the MIC in assay [1] was over 64 µg/mL; in the assay on N. gonorrhoeae WHO-Z, over 64 µg/mL; with P. aeruginosa PAO1, over 64 µg/mL; in assay [2] it was over 64 µg/mL; in assay [3], 16 µg/mL (≈ 8.95 µM); in assay [4] it was 16 µg/mL (≈ 8.95 µM). The MIC came out at 64 µg/mL (≈ 35.8 µM) in the assay with E. coli (tolC) JW5503-1 and 8 µg/mL (≈ 4.48 µM) with S. aureus ATCC 29213.
